Results published in patent US20230021275A1, “Application of Nanosulfur in Tomato Fusarium Wilt Control” (Jiangnan University, priority 2021, published 2023).

Columns and labels:
[1] = system: F. oxysporum; experiment: Growth of pathogen colonies on PDA plates; assay type: cell-based; details: 100 mg/L
Source text: This may be because the nanosulfur could induce the systemic acquired resistance of plants and the control effect of the nanosulfur on the tomato fusarium wilt was better than the direct bactericidal effect thereof.

[2] = system: Fusarium oxysporum f sp. Lycopersici; experiment: Foliar application to tomatoes grown in infected soil (tomato fusarium wilt control); assay type: in vivo; details: foliar spraying 100 mg/L; for Fresh weight of above-ground part / Fresh weight of underground part / Incidence: 10 mL/plant, 6th and 8th week, 10th week
Source text: There were 5 levels of disease severity of tomatoes: 0: symptomless; 1: mildly stunted; 2: stunted; 3: leaves wilted and yellowed; and 4: dead. […] The highest disease severity level of tomatoes was Level 4. The total number of tomato plants in the treated group was 6. Test of biomass of above-ground part and underground part: Tomatoes were sampled destructively. The above-ground part and the underground part of the tomato were washed with ultrapure water three times. The above-ground part and the underground part of the tomato were dried up with filter paper. The above-ground part and the underground part were weighed using a balance. The obtained weights were respectively the biomass of the above-ground part and the underground part of the tomato. (1) Pathogenic bacteria (Fusarium oxysporum f sp. Lycopersici, the pathogen of tomato fusarium wilt) were added to dry soil at a concentration of 1×10^6 spores/g to obtain infected soil. (2) Tomato seeds were sowed in the infected soil. […] The cultivation was continued. In the meanwhile, tomato seeds were sowed in soil not infected with pathogenic bacteria, and cultivated normally with no sulfur solution applied, to obtain a healthy group. The cultivation of the tomatoes was continued until the 10th week. The tomatoes were examined for the disease severity. The tomatoes were sampled destructively. The fresh weights of the above-ground part and the underground part of the tomatoes were measured. The test results are as follows: (1) Pathogenic bacteria (F. oxysporum, the pathogen of tomato fusarium wilt) were added to dry soil at a concentration of 1×10^6 spores/g to obtain infected soil. (2) Tomato seeds were sowed in the infected soil. […] The cultivation was continued. In the meanwhile, tomato plants with no fertilizer applied were taken as the foliar disease group. When the tomatoes grew to the 10th week, the tomatoes were examined for the disease severity. The tomatoes were sampled destructively. The fresh weights of the above-ground part and the underground part of the tomatoes were measured.

Compound	Antibacterial effect relative to that of the 30-SNPs ([1]; 6 days)	Reduction of the diameter of the pathogenic bacteria colonies ([1]; 6 days of exposure, compared with the foliar disease group)	Effect on fresh weights of above-ground and underground part (biomass) compared with the disease group [2]	Effect on the incidence of tomato fusarium wilt compared with the disease group [2]	Fresh weight of above-ground part [2]	Fresh weight of underground part [2]	Incidence [2]
Cc1cc(O)no1 [Hymexazol, hymexazol]	3.05 times	34.5%	significantly increased	significantly reduced	6.9 ± 0.9c g	1.8 ± 0.5b g	0.42 ± 0.08cd
O=S(=O)([O-])[O-].[Na+].[Na+] [Sodium sulfate, sodium sulfate]			no significant effects		5.5 ± 0.7 g·days	1.7 ± 0.2b g	0.64 ± 0.10a
